Our source for the IC50 values is US11028090B2 (Dong Wha Pharm. Co., Ltd., priority 2017, dated 2021).

The target of data set [1] is BRD4 (BD1+BD2) bromodomain (Homo sapiens (Human), UniProt O60885). In words: BRD4 binding inhibition (AlphaScreen, GST-BRD4 vs tetraacetylated histone H4 peptide). The method in brief:
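GST-BRD4 (BD1+BD2) and biotinylated tetraacetyl-histone H4 peptide, each at 100 nM in HEPES pH 7.4 buffer with BSA and DTT, were combined with compound. Glutathione acceptor and streptavidin donor beads were added, then incubated 30 min at room temperature in the dark. Read-out was AlphaScreen signal.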
For orientation: Bead proximity is the source of the signal in Alpha formats.

Data set [2] concerns acute myelogenous leukemia cells (MV-4-11 cells). In words: Cytotoxicity to acute myelogenous leukemia cells (MV-4-11 cells), CCK-8.
Where [3] appears, read: GST-BRD4 (BD1+BD2) / biotinylated acetyl-histone H4 (Lys5,8,12,16) peptide, read-out: IC50, BRD4 binding inhibition.
Setting [4] is: GST-BRD4 (BD1+BD2) vs biotinylated acetyl-histone H4 peptide, AlphaScreen, read-out: BRD4 IC50.
Where [5] appears, read: Homo sapiens, MV4-11, 72 h, read-out: MV-4-11 Cytotoxicity IC50.
Setting [6] is: Homo sapiens, MV4-11, 72 h, read-out: IC50, cytotoxicity against acute myelogenous leukemia cells.

pIC50: −log10 of the molar value. Read-outs that look alike come from different tables or passages of the source.

Consider `COCCOc1ccc2c(c1)nc(NCCCCNC(=O)[C@H](NC(=O)[C@@H](O)C(C)C)C(C)C)c1nnc(C)n12` (stereo in doubt) [Example 403, 2-(S,R)-hydroxy-N-(1-{4-[7-(2-methoxy-ethoxy)-1-methyl-[1,2,4]triazolo[4,3-a]quinoxaline-4-ylamino]-butylcarbamoyl}-2-methyl-propyl)-3-methyl-butyramide], for which the pIC50 – broadly, the IC50 on a negative log10 scale, so that one unit is a factor of ten – in data set [1] (setting [3]) is no less than 8.00; in data set [1] (setting [4]) it was 8.00; in data set [2] (setting [5]) it was 6.21.

With `Cc1nnc2c(NCCCCNC(=O)OC(C)(C)C)nc3ccccc3n12` [Example 1, [4-(1-methyl-[1,2,4]triazolo[4,3-a]quinoxaline-4-ylamino)-butyl]-carbamic acid-tert-butylester], the pIC50 in data set [1] (setting [4]) was 7.13; in data set [2] (setting [5]) it was 6.01.

As for `Cc1nnc2c(NCCCCNC(=O)[C@@H](O)C(C)C)nc3ccccc3n12` [Example 10, 2-(S)-hydroxy-N-[4-(1-methyl-[1,2,4]triazolo[4,3-a]quinoxaline-4-ylamino)-butyl]-3-methyl-butyramide], the pIC50 in data set [1] (setting [3]) was no less than 8.00; in data set [1] (setting [4]) it was 8.30; in data set [2] (setting [5]), 6.80.

For the molecule `Cc1nnc2c(NCCCCNC(=O)CC(C)C)nc3cc(F)c(F)cc3n12` [Example 37, N-[4-(7,8-difluoro-1-methyl-[1,2,4]triazolo[4,3-a]quinoxaline-4-ylamino)-butyl]-3-methyl-butyramide], the pIC50 in data set [1] (setting [3]) is no less than 8.00; in data set [1] (setting [4]), 8.10; in data set [2] (setting [6]), no less than 6.70; in data set [2] (setting [5]), 6.92.

For `Cc1nnc2c(NCCCCNC(=O)[C@@H](O)C(C)C)nc3cc(F)c(F)cc3n12` [Example 39, N-[4-(7,8-difluoro-1-methyl-[1,2,4]triazolo[4,3-a]quinoxaline-4-ylamino)-butyl]-2-(S)-hydroxy-3-methyl-butyramide], the pIC50 is no less than 8.00 in data set [1] (setting [3]), 8.22 in data set [1] (setting [4]) and 6.72 in data set [2] (setting [5]).

Regarding `CCOC(=O)NCCCCNc1nc2cc(OC)c(OC)cc2n2c(C)nnc12` [Example 61, [4-(7,8-dimethoxy-1-methyl-[1,2,4]triazolo[4,3-a]quinoxaline-4-ylamino)-butyl]-carbamic acid ethylester], the pIC50 in data set [1] (setting [4]) was 7.25; in data set [2] (setting [5]), 6.42.

Consider `CCC(C)OC(=O)NCCCCNc1nc2cc(OC)c(OC)cc2n2c(C)nnc12` (stereo not shown) [Example 63, [4-(7,8-dimethoxy-1-methyl-[1,2,4]triazolo[4,3-a]quinoxaline-4-ylamino)-butyl]-carbamic acid-sec-butylester], for which the pIC50 was no less than 7.30 in data set [1] (setting [3]), 7.92 in data set [1] (setting [4]), no less than 6.70 in data set [2] (setting [6]) and 7.15 in data set [2] (setting [5]).

For the molecule `CCCOC(=O)NCCCCNc1nc2cc(OC)c(OC)cc2n2c(C)nnc12` [Example 64, [4-(7,8-dimethoxy-1-methyl-[1,2,4]triazolo[4,3-a]quinoxaline-4-ylamino)-butyl]-carbamic acid propylester], the pIC50 in data set [1] (setting [3]) is no less than 7.30; in data set [1] (setting [4]), 7.70; in data set [2] (setting [6]) it was no less than 6.70; in data set [2] (setting [5]) it was 6.92.

For the molecule `COc1cc2nc(NCCCCNC(=O)OCc3ccccc3)c3nnc(C)n3c2cc1OC` [Example 68, [4-(7,8-dimethoxy-1-methyl-[1,2,4]triazolo[4,3-a]quinoxaline-4-ylamino)-butyl]-carbamic acid benzylester], the pIC50 is no less than 7.30 in data set [1] (setting [3]), 7.42 in data set [1] (setting [4]) and 6.35 in data set [2] (setting [5]).

Turning to `COc1cc2nc(NCCCCNC(=O)C(C)C)c3nnc(C)n3c2cc1OC` [Example 70, N-[4-(7,8-dimethoxy-1-methyl-[1,2,4]triazolo[4,3-a]quinoxaline-4-ylamino)-butyl]-isobutyramide], the values for the pIC50 in data set [1] (setting [3]) and in data set [2] (setting [5]) were no less than 7.30 and 6.43, respectively.

On to `Cc1nnc2c(NCCCCNC(=O)CC(C)C)nc3cc(NC(=S)NC(C)C)ccc3n12` [Example 256, N-{4-[7-(3-isopropyl-thioureido)-1-methyl-[1,2,4]triazolo[4,3-a]quinoxaline-4-ylamino]-butyl}-3-methyl-butyramide], for which the pIC50 is no less than 6.70 in data set [2] (setting [6]) and 7.08 in data set [2] (setting [5]).

For `Cc1nnc2c(NCCCCNC(=O)CC(C)C)nc3cc(NS(=O)(=O)C(C)C)ccc3n12` [Example 259, 3-methyl-N-{4-[1-methyl-7-(propane-2-sulfonylamino)-[1,2,4]triazolo[4,3-a]quinoxaline-4-ylamino]-butyl}-butyramide], the pIC50 in data set [2] (setting [5]) was 6.47.

For `Cc1nnc2c(NCCCCNC(=O)C(C)(C)C)nc3ccc(OC(F)(F)F)cc3n12` [Example 265, 2,2-dimethyl-N-[4-(1-methyl-8-trifluoromethoxy-[1,2,4]triazolo[4,3-a]quinoxaline-4-ylamino)-butyl]-propionamide], in data set [2] (setting [5]), the pIC50 was 6.17.

`Cc1nnc2c(NCCCCNC(=O)C(C)(C)C)nc3cc(OC(F)(F)F)ccc3n12` [Example 271, 2,2-dimethyl-N-[4-(1-methyl-7-trifluoromethoxy-[1,2,4]triazolo[4,3-a]quinoxaline-4-ylamino)-butyl]-propionamide]: the pIC50 in data set [2] (setting [5]) is 6.06.

`COc1ccc2c(c1)nc(NCCCCNC(=O)C1CC1)c1nnc(C)n12` [Example 282, cyclopropane; carboxylic acid-[4-(7-methoxy-1-methyl-[1,2,4]triazolo[4,3-a]quinoxaline-4-ylamino)-butyl]-amide]: the pIC50 in data set [2] (setting [5]) was 6.27.

With `Cc1nnc2c(NCCCCNC(=O)CC(C)C)nc3cc(OC(=O)N4CCOCC4)ccc3n12` [Example 351], the pIC50 in data set [2] (setting [5]) was 6.54.

On to `CSc1ccc2c(c1)nc(NCCCCNC(=O)CC(C)C)c1nnc(C)n12` [Example 356, 3-methyl-N-[4-(1-methyl-7-methylsulfanyl-[1,2,4]triazolo[4,3-a]quinoxaline-4-ylamino)-butyl]-butyramide], for which the pIC50 in data set [2] (setting [6]) was no less than 6.70; in data set [2] (setting [5]) it was 6.84.

Take `Cc1nnc2c(NCCCCNC(=O)OC(C)C)nc3cc(OC(C)C)ccc3n12` [Example 452, [4-(7-isopropoxy-1-methyl-[1,2,4]triazolo[4,3-a]quinoxaline-4-ylamino)-butyl]-carbamic acid isopropylester]: the pIC50 in data set [2] (setting [5]) was 6.49.

Take `COCCOc1cc2c(cc1OC)nc(NCCCCNC(=O)OC(C)(C)C)c1nnc(C)n12` [Example 483, {4-[7-methoxy-8-(2-methoxy-ethoxy)-1-methyl-[1,2,4]triazolo[4,3-a]quinoxaline-4-ylamino]-butyl}-carbamic acid-tert-butylester]: in data set [2] (setting [5]), the pIC50 was 6.34.

As to `COCCOc1cc2c(cc1OC)nc(NCCCCN)c1nnc(C)n12` [Example 484, N^1-[7-methoxy-8-(2-methoxy-ethoxy)-1-methyl-[1,2,4]triazolo[4,3-a]quinoxaline-4-yl]-butane-1,4-diamine ditrifluoroacetic acid], the pIC50 in data set [2] (setting [5]) is 6.34.

As to `Cc1nnc2c(NCCCCNC(=O)[C@@H](NC(=O)CC(C)C)C(C)C)nc3cc(N4C[C@@H](C)O[C@@H](C)C4)ccc3n12` [Example 518, (S)-N-{4-[7-(2,6-dimethyl-morpholine-4-yl)-1-methyl-[1,2,4]triazolo[4,3-a]quinoxaline-4-ylamino]-butyl}-3-methyl-2-(3-methyl-butyrylamino)-butyramide], in data set [2] (setting [5]), the pIC50 was 6.32.

As for `Cc1nnc2c(NCCCCNC(=O)OC(C)(C)C)nc3cc(N4CCc5sccc5C4)ccc3n12` [Example 526, {4-[7-(6,7-dihydro-4H-thiano[3,2-c]pyridine-5-yl)-1-methyl-[1,2,4]triazolo[4,3-a]quinoxaline-4-ylamino]-butyl}-carbamic acid-tert-butylester], the negative logarithm of the IC50 (pIC50) in data set [2] (setting [5]) is 6.10.

For `COc1cc2nc(NCCCCNC(=O)CC(C)C)c3nnc(C)n3c2cc1NC(=O)NC(C)C` [Example 561, N-{4-[8-(3-isopropyl-ureido)-7-methoxy-1-methyl-[1,2,4]triazolo[4,3-a]quinoxaline-4-ylamino]-butyl}-3-methyl-butyramide], the pIC50 is no less than 6.70 in data set [2] (setting [6]) and 7.22 in data set [2] (setting [5]).

For the molecule `COc1cc2nc(NCCCCNC(=O)CC(C)C)c3nnc(C)n3c2cc1N(S(C)(=O)=O)S(C)(=O)=O` [Example 566, N-[4-(8-dimethanesulfonyl-amino-7-methoxy-1-methyl-[1,2,4]triazolo[4,3-a]quinoxaline-4-ylamino)-butyl]-3-methyl-butyramide], the pIC50 in data set [2] (read-out: MV-4-11 Cytotoxicity IC50, MV-4-11 cells, 72 hours, CCK-8) was 6.26.

With `COc1cc2nc(NCCCCNC(=O)OC(C)(C)C)c3nnc(C)n3c2cc1F` [Example 572, [4-(8-fluoro-7-methoxy 1-methyl-[1,2,4]triazolo[4,3-a]quinoxaline-4-ylamino)-butyl]-carbamic acid-tert-butylester], the pIC50 in data set [2] (setting [5]) was 6.62.

Turning to `COc1cc2c(cc1OCCN1CCOCC1)nc(NCCCCNC(=O)CC(C)C)c1nnc(C)n12` [Example 577, N-{4-[8-methoxy-1-methyl-7-(2-morpholine-4-yl-ethoxy)-[1,2,4]triazolo[4,3-a]quinoxaline-4-ylamino]-butyl}-3-methyl butyramide], the pIC50 in data set [2] (setting [6]) was no less than 6.70; in data set [2] (setting [5]), 7.06.

Turning to `Cc1noc(C)c1-c1ccc2c(c1)nc(NCCCCN)c1nnc(C)n12` [Example 584, N^1-[7-(3,5-dimethyl-isoxazol-4-yl)-1-methyl-[1,2,4]triazolo[4,3-a]quinoxaline-4-yl]-butane-1,4-diamine ditrifluoroacetic acid], the pIC50 in data set [2] (setting [6]) was no less than 6.70; in data set [2] (setting [5]), 6.89.
